Source: patent US7226931B2, “(R/S) rifamycin derivatives, their preparations and pharmaceutical compositions” (priority 2004, dated 2007)
Converted amounts (≈) assume the structure as drawn. Read-outs that look alike come from different tables or passages of the source.

Key:
S. aureus ATCC 29213 = experiment: MIC by microbroth dilution, S. aureus ATCC 29213 (rifS); format: cell-based, Staphylococcus aureus
Method: (§1) Representative compounds of the formula (I) were assayed for antimicrobial activity as follows: Minimum Inhibitory Concentrations (MICs) were determined by the microbroth dilution method as per NCCLS guidelines (National Committee for Clinical Laboratory Standards, 2000). All growth incubations were conducted at 37° C. Bacterial cultures were tested in the following bacteriological media: S. aureus, S. epidermidis in Cation-Adjusted Mueller-Hinton Broth, S. pneumoniae in THY Broth supplemented with 1 mg/mL catalase under 5% CO2 atmosphere, S. pyogenes in THY Broth, E. faecalis in BHI Broth, H. influenzae in BHI Broth supplemented with 0.75 μL of 1 mg/mL NAD and 150 μL of 1 mg/ml hematin per 5 mL.
(§2) S. aureus ATCC 29213, S. epidermidis ATCC 12228, S. pneumoniae ATCC6303, S. pyogenes ATCC 19615 and E. faecalis ATCC 29212 are rifampin-susceptible Gram-positive strains. […] H. influenzae ATCC 10211 is Gram-negative bacteria.

[1] = system: S. aureus ATCC 29213 RpoB^D417Y; experiment: microbe, parasite or virus in culture; format: cell-based; conditions: Staphylococcus aureus
Method: as §1, §2

H. influenzae ATCC 10211 = experiment: MIC by microbroth dilution, H. influenzae ATCC 10211; format: cell-based, Haemophilus influenzae
Method: as §1, §2

[2] = system: Staphylococcus aureus MT1222 gyrA^A116E grlB^S80F; experiment: MIC by microbroth dilution, quinolone-resistant S. aureus MT1222; format: cell-based
Method: as §1, §2

[3] = system: S. epidermidis ATCC 12228; experiment: MIC by microbroth dilution, S. epidermidis ATCC 12228; format: cell-based, Staphylococcus epidermidis
Method: as §1, §2

S. pyogenes ATCC 19615 = experiment: MIC by microbroth dilution, S. pyogenes ATCC 19615; format: cell-based, Streptococcus pyogenes
Method: as §1, §2

S. pneumoniae ATCC6303 = experiment: MIC by microbroth dilution, S. pneumoniae ATCC6303; format: cell-based, Streptococcus pneumoniae
Method: as §1, §2

[4] = MIC by microbroth dilution, panel of rifampin-susceptible Gram-positive strains; format: cell-based; conditions: range over the rifampin-susceptible Gram-positive strains
Method: as §1, §2

[5] = system: pathogenic microorganisms; experiment: Antibacterial activity, influence of linker chirality (R versus S); format: cell-based; conditions: (R)- versus (S)-absolute configuration at the linker carbon
Method: as §1, with “As already mentioned, the compounds of formula I or their salts have antibacterial properties and activities against rifampin and quinolone resistant strains. […] Representative” for “Representative”
The antibacterial activities of the compounds of the formula (I) are influenced by the chirality of the linker.

[6] = Staphylococcus aureus ATCC29213, rifS, read-out: Antimicrobial activity (MIC)
[7] = ATCC29213, read-out: Antimicrobial activity (MIC)
[8] = Haemophilus influenzae ATCC10211, rifS, read-out: Antimicrobial activity (MIC)
[9] = read-out: Antimicrobial activity (MIC)
[10] = Staphylococcus epidermidis ATCC12228, rifS, read-out: Antimicrobial activity (MIC)
[11] = Streptococcus pyogenes ATCC19615, rifS, read-out: Antimicrobial activity (MIC)
[12] = Streptococcus pneumoniae ATCC6303, rifS, read-out: Antimicrobial activity (MIC)
[13] = Staphylococcus aureus, ATCC29213, read-out: Antimicrobial activity (MIC)
[14] = Staphylococcus epidermidis, ATCC12228, read-out: Antimicrobial activity (MIC)
[15] = Streptococcus pyogenes, ATCC19615, read-out: Antimicrobial activity (MIC)
[16] = Streptococcus pneumoniae, ATCC6303, read-out: Antimicrobial activity (MIC)

| SMILES | MIC (S. aureus ATCC 29213; [6]) [µg/mL] | MIC [1, 7] [µg/mL] | MIC (H. influenzae ATCC 10211; [8]) [µg/mL] | MIC [2] [µg/mL] | MIC [2, 9] [µg/mL] | MIC [3, 10] [µg/mL] | MIC (S. pyogenes ATCC 19615; [11]) [µg/mL] | MIC (S. pneumoniae ATCC6303; [12]) [µg/mL] | MIC (S. aureus ATCC 29213; [13]) [µg/mL] | MIC [3, 14] [µg/mL] | MIC (S. pyogenes ATCC 19615; [15]) [µg/mL] | MIC (S. pneumoniae ATCC6303; [16]) [µg/mL] | MIC ([1]; ATCC29213) [µg/mL] | MIC (H. influenzae ATCC 10211; Haemophilus influenzae, ATCC10211, Gram-negative bacteria (H. influenzae ATCC 10211, 'these organisms'), read-out: MICs) [µg/mL] | MIC [4] [µg/mL] | antibacterial activity compared with example 2 ((S)-configuration) [5] |
| --- | --- | --- | --- | --- | --- | --- | --- | --- | --- | --- | --- | --- | --- | --- | --- | --- |
| O=C(O)c1cn(C2CC2)c2cc(N3CCNCC3)c(F)cc2c1=O [ciprofloxacin] | 0.25 (≈ 0.754 µM) | 0.25 (≈ 0.754 µM) | 0.008 (≈ 0.0241 µM) | 8 (≈ 24.1 µM) | 8 (≈ 24.1 µM) | 0.125 (≈ 0.377 µM) | 0.5 (≈ 1.51 µM) | 1 (≈ 3.02 µM) |  |  |  |  |  |  |  |  |
| CO[C@H]1/C=C/O[C@@]2(C)Oc3c(C)c(O)c4c(O)c(c(/C=N/N5CCC(N(C)C6([C@H]7CCN(c8c(F)cn9c(=O)c(C(=O)O)cc(C%10CC%10)c9c8C)C7)CC6)CC5)c(O)c4c3C2=O)NC(=O)/C(C)=C\C=C\[C@H](C)[C@H](O)[C@@H](C)[C@@H](O)[C@@H](C)[C@H](OC(C)=O)[C@@H]1C [Example 2, (S)-3-[(4-{1-[1-(3-Carboxy-1-cyclopropyl-7-fluoro-9-methyl-4-oxo-4H-quinolizine-8-yl)-pyrrolidin-3-yl-cyclopropyl]-methylamino}-piperidin-1-ylimino)-methylenyl]-rifamycin SV] |  | 8 (≈ 6.64 µM) | 0.5 (≈ 0.415 µM) |  | 0.24 (≈ 0.199 µM) |  |  |  | 0.24 (≈ 0.199 µM) | 0.12 (≈ 0.0996 µM) | 0.03 (≈ 0.0249 µM) | 0.015 (≈ 0.0124 µM) |  |  |  |  |
| CO[C@H]1/C=C/O[C@@]2(C)Oc3c(C)c(O)c4c(O)c(c(/C=N/N5CCN(C)CC5)c(O)c4c3C2=O)NC(=O)/C(C)=C\C=C\[C@H](C)[C@H](O)[C@@H](C)[C@@H](O)[C@@H](C)[C@H](OC(C)=O)[C@@H]1C [rifampin] | 0.008 (≈ 0.00972 µM) | > 256 | 0.24 (≈ 0.292 µM) |  | 0.004 (≈ 0.00486 µM) | 0.03 (≈ 0.0365 µM) | 0.013 (≈ 0.0158 µM) | 0.061 (≈ 0.0741 µM) |  |  |  |  | > 256 | 0.24 to 16 (≈ 0.292 to 19.4 µM) | 0.008 to 1 (≈ 0.00972 to 1.22 µM) |  |
| CO[C@H]1/C=C/O[C@@]2(C)Oc3c(C)c(O)c4c(O)c(c(/C=N/N5CCC(N(C)C6([C@@H]7CCN(c8c(F)cn9c(=O)c(C(=O)O)cc(C%10CC%10)c9c8C)C7)CC6)CC5)c(O)c4c3C2=O)NC(=O)/C(C)=C\C=C\[C@H](C)[C@H](O)[C@@H](C)[C@@H](O)[C@@H](C)[C@H](OC(C)=O)[C@@H]1C [Example 1, (R)-3-[(4-{1-[1-(3-Carboxy-1-cyclopropyl-7-fluoro-9-methyl-4-oxo-4H-quinolizine-8-yl)-pyrrolidin-3-yl-cyclopropyl]-methylamino}-piperidin-1-ylimino)-methylenyl]-rifamycin SV] |  | 0.5 (≈ 0.415 µM) | 0.5 (≈ 0.415 µM) |  | 0.06 (≈ 0.0498 µM) |  |  |  | 0.06 (≈ 0.0498 µM) | 0.06 (≈ 0.0498 µM) | 0.015 (≈ 0.0124 µM) | 0.015 (≈ 0.0124 µM) |  |  |  | more active |
